Measured values: ChEMBL document CHEMBL4342437, “Development and structure-activity relationship study of SHP2 inhibitor containing 3,4,6-trihydroxy-5-oxo-5H-benzo[7]annulene” (Bioorg Med Chem Lett, 2020)
Active and inactive are the calls of the source. The rule behind the calls is not given here.

Tests used:
[1] = target: T1, Tyrosine-protein phosphatase non-receptor type 11 (Homo sapiens) (UniProt Q06124); experiment: Inhibition of recombinant human SHP2 expressed in Escherichia coli using 2P-IRS1 peptide as substrate at 1 uM after 1 hr by microplate reader analysis relative to control
T1 sequence (whole entry): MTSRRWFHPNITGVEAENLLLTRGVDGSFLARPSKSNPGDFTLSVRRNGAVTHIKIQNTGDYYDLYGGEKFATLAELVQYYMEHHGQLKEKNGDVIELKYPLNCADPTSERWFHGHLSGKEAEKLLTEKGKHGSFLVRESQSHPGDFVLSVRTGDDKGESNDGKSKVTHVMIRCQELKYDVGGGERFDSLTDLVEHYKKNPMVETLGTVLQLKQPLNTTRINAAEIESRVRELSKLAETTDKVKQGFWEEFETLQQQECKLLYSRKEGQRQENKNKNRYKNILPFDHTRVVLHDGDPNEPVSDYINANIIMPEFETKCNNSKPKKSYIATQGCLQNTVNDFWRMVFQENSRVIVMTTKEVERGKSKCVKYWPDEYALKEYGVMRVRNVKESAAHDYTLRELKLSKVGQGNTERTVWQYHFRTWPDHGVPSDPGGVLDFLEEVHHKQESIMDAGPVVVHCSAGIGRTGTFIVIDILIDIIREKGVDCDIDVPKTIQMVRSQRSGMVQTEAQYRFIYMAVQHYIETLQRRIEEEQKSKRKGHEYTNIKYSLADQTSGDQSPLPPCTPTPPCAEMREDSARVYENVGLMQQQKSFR

[2] = target: T2, Tyrosine-protein phosphatase non-receptor type 11 (Homo sapiens, UniProt Q06124); experiment: Inhibition of recombinant human SHP2 expressed in Escherichia coli using 2P-IRS1 peptide as substrate after 1 hr by microplate reader analysis
T2 sequence (Q06124 whole entry): T1 sequence (whole entry)

MDA-MB-468 [3] = experiment: Antiproliferative activity against human MDA-MB-468 3D spheroids assessed as reduction in cell viability after 2 to 4 days by CCK-8 assay; type: functional, cell-based
MDA-MB-468 [4] = experiment: Antiproliferative activity against human MDA-MB-468 cells assessed as reduction in cell viability after 2 to 4 days by CCK-8 assay; type: functional, cell-based
MDA-MB-468 [5] = experiment: Antiproliferative activity against human MDA-MB-468 3D spheroids assessed as reduction in cell viability at 20 uM after 2 to 4 days by CCK-8 assay relative to control; type: functional
MDA-MB-468 [6] = experiment: Antiproliferative activity against SHP2 knockout human MDA-MB-468 cells with assessed as increase in cell viability at 100 uM after 2 to 4 days by CCK-8 assay relative to MDA-MB-468 cells expressing SHP2; type: functional
[7] = target: T1, Tyrosine-protein phosphatase non-receptor type 11 (Homo sapiens); experiment: Non-competitive inhibition of recombinant human SHP2 expressed in Escherichia coli using 2P-IRS1 peptide as substrate up to 200 uM after 1 hr by Lineweaver-Burk plot analysis
MDA-MB-468 [8] = experiment: Potency index, ratio of SHP099 IC50 to compound IC50 for antiproliferative activity against human MDA-MB-468 cells after 2 to 4 days by CCK-8 assay; type: functional

Structure (SMILES)	inhibition [1] [%]	IC50 [2] [µM]	other results
COc1ccc2cc(C(=O)O)cc(OC)c(=O)c2c1OC	0	–	–
CCOC(=O)c1cc(O)c(=O)c2c(O)c(O)c(F)cc2c1	19	6.54	–
CC(C)OC(=O)c1cc(O)c(=O)c2c(O)c(O)c(F)cc2c1	0.47	7.74	–
CC1(N)CCN(c2cnc(-c3cccc(Cl)c3Cl)c(N)n2)CC1	–	–	IC50 (MDA-MB-468 [3]): 49.6 µM; IC50 (MDA-MB-468 [4]): 29.9 µM
COC(=O)c1cc(O)c(=O)c2c(O)c(O)c(OC)cc2c1	6	8.66	–
COC(=O)c1cc(O)c(=O)c2c(O)c(O)c(F)cc2c1	12	7.55	–
COc1cc2cc(C(N)=O)cc(O)c(=O)c2c(O)c1O	0	–	–
COC(=O)c1cc(OC)c(=O)c2c(OC)c(OC)ccc2c1	0	–	–

The next lines start with results.

inhibition [1] [%]	IC50 [2] [µM]	Structure (SMILES)	other results
50	0.985	CCOC(=O)c1cc(O)c(=O)c2c(O)c(O)ccc2c1	–
87	0.161	COC(=O)c1cc(O)c(=O)c2c(O)c(O)ccc2c1 [METHYL 7-DESHYDROXYPYROGALLIN-4-CARBOXYLATE]	IC50 (MDA-MB-468 [3]): 62.9 µM; IC50 (MDA-MB-468 [4]): 4.6 µM; Activity (MDA-MB-468 [5]): 27.5%; fold change (FC) (MDA-MB-468 [6]): 3
0	–	O=c1c(O)cccc2ccc(O)c(O)c12	–
13	4.11	NC(=O)c1cc(O)c(=O)c2c(O)c(O)ccc2c1	–
29	1.57	O=c1c(O)cc(-c2nc(CCl)co2)cc2ccc(O)c(O)c12	–
40	1.23	N#Cc1cc(O)c(=O)c2c(O)c(O)ccc2c1	–
90	0.277	O=C(O)c1cc(O)c(=O)c2c(O)c(O)c(F)cc2c1	IC50 (MDA-MB-468 [3]): 39.2 µM; IC50 (MDA-MB-468 [4]): 71 µM; Activity (MDA-MB-468 [5]): 37.2%; fold change (FC) (MDA-MB-468 [6]): 16.3
2	4.87	CC(C)OC(=O)c1cc(O)c(=O)c2c(O)c(O)ccc2c1	–
93	0.097	O=C(O)c1cc(O)c(=O)c2c(O)c(O)ccc2c1 [7-DESHYDROXYPYROGALLIN-4-CARBOXYLIC ACID]	IC50 (MDA-MB-468 [3]): 35.8 µM; IC50 (MDA-MB-468 [4]): 5.3 µM; inhibition [7]: Active; Ratio IC50 (MDA-MB-468 [8]): 5.6; Activity (MDA-MB-468 [5]): 35.7%; fold change (FC) (MDA-MB-468 [6]): 19.3
52	0.949	NC(=O)c1cc(O)c(=O)c2c(O)c(O)c(F)cc2c1	–
